Experimental data reported in US7589213B2 (priority 2007, dated 2009).

How the values were obtained:
EP2 [1] = molecular target: T1, EP2 (Homo sapiens, UniProt P43116); assay: EP2 flipr assay; type: cell-based
Source text: (§1) U.S. patent application Ser. No. 11/553,143, filed on Oct. 26, 2006, incorporated by reference herein, describes the methods used to obtain the in vitro data in the table below.

hEP3A = molecular target: T2, hEP3A (Homo sapiens, UniProt P43115); assay: Other receptors functional EC50, hEP3A; type: cell-based
T2 sequence (P43115 1-390): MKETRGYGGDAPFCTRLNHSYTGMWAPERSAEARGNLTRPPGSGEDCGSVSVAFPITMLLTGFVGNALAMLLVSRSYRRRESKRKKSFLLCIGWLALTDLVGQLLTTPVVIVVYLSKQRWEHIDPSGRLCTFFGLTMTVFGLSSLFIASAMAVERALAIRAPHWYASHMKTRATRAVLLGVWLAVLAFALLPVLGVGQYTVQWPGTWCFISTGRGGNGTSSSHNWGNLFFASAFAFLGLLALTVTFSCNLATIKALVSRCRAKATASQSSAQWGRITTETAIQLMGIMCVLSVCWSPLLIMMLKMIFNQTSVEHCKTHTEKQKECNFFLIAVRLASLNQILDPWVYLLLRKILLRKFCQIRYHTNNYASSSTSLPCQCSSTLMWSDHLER
Source text: as §1

hDP = molecular target: T3, hDP (Homo sapiens, UniProt Q13258); assay: Other receptors functional EC50, hDP; type: cell-based
T3 sequence (Q13258 1-359): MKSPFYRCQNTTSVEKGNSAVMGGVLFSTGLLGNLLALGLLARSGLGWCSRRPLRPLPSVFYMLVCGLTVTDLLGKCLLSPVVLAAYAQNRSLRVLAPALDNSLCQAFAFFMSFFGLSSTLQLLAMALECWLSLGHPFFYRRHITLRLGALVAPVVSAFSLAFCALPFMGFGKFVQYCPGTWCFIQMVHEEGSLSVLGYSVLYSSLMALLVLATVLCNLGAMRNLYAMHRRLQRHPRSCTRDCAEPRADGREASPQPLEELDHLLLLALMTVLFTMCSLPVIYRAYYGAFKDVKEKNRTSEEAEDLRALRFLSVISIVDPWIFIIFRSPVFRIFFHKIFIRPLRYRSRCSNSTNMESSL
Source text: as §1

EP4 [2] = molecular target: T4, EP4 (Homo sapiens, UniProt P35408); assay: EP4 flipr assay; type: cell-based
Source text: as §1

EP4 [3] = molecular target: T4, EP4; assay: EP4 binding (KI)
Source text: as §1

EP2 [4] = molecular target: T1, EP2; assay: EP2 binding (Ki)
Source text: as §1

EP2 [5] = molecular target: T1, EP2; assay: EP2 cAMP assay; type: cell-based
Source text: as §1

hTP = molecular target: T5, hTP (Homo sapiens, UniProt P21731); assay: Other receptors functional EC50, hTP; type: cell-based
T5 sequence (P21731 1-343): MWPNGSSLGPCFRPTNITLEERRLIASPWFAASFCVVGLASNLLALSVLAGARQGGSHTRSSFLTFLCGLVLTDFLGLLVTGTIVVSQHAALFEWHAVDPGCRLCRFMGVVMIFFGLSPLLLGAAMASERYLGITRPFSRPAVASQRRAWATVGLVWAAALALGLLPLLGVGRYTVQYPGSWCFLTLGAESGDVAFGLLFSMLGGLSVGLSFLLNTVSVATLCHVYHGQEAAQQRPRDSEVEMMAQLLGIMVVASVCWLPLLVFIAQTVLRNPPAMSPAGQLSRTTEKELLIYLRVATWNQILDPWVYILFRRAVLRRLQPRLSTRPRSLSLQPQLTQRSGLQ
Source text: as §1

hIP = hIP (Homo sapiens, UniProt P43119); assay: Other receptors functional EC50, hIP; type: cell-based
Source text: as §1

hEP1 = molecular target: T6, hEP1 (Homo sapiens, UniProt P34995); assay: Other receptors functional EC50, hEP1; type: cell-based
T6 sequence (P34995 1-402): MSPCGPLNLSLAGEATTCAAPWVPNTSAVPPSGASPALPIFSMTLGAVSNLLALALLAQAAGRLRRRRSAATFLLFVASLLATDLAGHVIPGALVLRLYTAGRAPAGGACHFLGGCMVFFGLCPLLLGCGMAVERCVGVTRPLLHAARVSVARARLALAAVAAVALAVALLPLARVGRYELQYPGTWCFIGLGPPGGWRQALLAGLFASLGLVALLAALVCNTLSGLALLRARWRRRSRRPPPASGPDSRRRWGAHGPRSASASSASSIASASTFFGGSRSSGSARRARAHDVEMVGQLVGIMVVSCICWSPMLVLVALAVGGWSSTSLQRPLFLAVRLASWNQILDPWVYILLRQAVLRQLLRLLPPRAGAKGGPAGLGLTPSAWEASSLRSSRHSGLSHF
Source text: as §1

hFP = hFP (Homo sapiens, UniProt P43088); assay: Other receptors functional EC50, hFP; type: cell-based
Source text: as §1

T1 sequence (P43116 whole entry): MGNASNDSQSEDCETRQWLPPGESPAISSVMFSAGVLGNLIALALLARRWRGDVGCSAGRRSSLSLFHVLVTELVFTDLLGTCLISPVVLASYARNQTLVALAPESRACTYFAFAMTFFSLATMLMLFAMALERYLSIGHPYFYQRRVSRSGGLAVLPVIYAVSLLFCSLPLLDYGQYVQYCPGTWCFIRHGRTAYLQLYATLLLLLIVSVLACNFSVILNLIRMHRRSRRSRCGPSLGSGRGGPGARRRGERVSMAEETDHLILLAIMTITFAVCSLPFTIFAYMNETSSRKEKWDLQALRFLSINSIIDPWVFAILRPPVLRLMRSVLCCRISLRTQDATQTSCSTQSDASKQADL
T4 sequence (P35408 whole entry): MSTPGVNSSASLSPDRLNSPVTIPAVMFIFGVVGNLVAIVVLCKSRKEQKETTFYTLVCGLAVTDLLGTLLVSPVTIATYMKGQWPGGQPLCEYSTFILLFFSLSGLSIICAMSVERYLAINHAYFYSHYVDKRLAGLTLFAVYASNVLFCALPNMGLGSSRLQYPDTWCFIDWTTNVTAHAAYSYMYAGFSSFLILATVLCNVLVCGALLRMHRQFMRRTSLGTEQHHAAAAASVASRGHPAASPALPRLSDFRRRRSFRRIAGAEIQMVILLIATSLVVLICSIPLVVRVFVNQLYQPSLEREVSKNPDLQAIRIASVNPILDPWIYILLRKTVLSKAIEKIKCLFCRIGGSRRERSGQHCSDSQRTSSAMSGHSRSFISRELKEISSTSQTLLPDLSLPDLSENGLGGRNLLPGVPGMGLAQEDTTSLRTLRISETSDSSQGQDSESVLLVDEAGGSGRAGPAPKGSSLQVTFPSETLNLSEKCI
Chain of hIP (P43119 whole entry): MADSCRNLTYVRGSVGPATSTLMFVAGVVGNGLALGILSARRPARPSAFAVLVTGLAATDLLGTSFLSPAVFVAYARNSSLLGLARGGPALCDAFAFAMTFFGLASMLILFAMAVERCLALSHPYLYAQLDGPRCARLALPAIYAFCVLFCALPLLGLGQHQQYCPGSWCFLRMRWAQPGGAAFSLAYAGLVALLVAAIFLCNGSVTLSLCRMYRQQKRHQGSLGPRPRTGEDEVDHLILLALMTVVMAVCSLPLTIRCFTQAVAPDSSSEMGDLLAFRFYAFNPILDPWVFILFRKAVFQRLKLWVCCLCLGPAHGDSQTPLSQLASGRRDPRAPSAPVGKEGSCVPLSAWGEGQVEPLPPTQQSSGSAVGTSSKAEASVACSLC
Chain of hFP (P43088 whole entry): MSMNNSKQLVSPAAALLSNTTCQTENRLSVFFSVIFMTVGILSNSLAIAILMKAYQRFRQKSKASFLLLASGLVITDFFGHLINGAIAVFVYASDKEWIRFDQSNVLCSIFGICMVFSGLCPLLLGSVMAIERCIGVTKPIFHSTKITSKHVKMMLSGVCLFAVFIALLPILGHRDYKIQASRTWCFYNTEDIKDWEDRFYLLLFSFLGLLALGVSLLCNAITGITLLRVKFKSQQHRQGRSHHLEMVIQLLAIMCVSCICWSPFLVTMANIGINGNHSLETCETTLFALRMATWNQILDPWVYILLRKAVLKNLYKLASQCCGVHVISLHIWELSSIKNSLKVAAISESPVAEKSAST

| SMILES | EC50 (EP2 [1]) [nM] | EC50 (hEP3A) [nM] | EC50 (hDP) [nM] | EC50 (EP4 [2]) [nM] | Ki (EP4 [3]) [nM] | Ki (EP2 [4]) [nM] | EC50 (EP2 [5]) [nM] | EC50 (hTP) [nM] | EC50 (hIP) [nM] | EC50 (hEP1) [nM] | EC50 (hFP) [nM] |
| --- | --- | --- | --- | --- | --- | --- | --- | --- | --- | --- | --- |
| CCCCCCC(=O)c1ccc(N2C(=O)CC[C@@H]2CCSc2nc(C(=O)O)cs2)cc1 [compound 38, (R)-2-(2-(1-(4-heptanoylphenyl)-5-oxopyrrolidin-2-yl)ethylthio)thiazole-4-carboxylic acid] | 45 | 43 | 594 | > 10000 | 3030 | 18 | 0.7 |  |  |  |  |
| CCCCCC(O)c1ccc(N2C(=O)CC[C@@H]2CCSc2nc(C(=O)O)cs2)cc1 (stereo partly drawn) [compound 14, (R)-2-(2-(1-(4-(1-hydroxyhexyl)phenyl)-5-oxopyrrolidin-2-yl)ethylthio)thiazole-4-carboxylic acid] | 36 | 44 | > 10000 |  | > 10000 | 11 | 0.19 | > 10000 | > 10000 | > 10000 |  |
| CCCCCC(O)c1ccc(N2C(=O)CC[C@@H]2CCSc2nc(C(=O)O)cs2)cc1 (single isomer, unassigned) [compound 17] | 18 | 35 | > 10000 |  |  | 15 | 0.15 |  |  | > 10000 |  |
| CCCCCC(F)c1ccc(N2C(=O)CC[C@@H]2CSc2nc(C(=O)O)cs2)cc1 (some centres unmarked) [compound 54] | 212 | 503 | 16400 |  | > 10000 | 345 | 117 | 14500 |  |  |  |
| O=C(O)c1ccc(COC[C@H]2CCC(=O)N2c2ccc(-c3nccs3)cc2)s1 [compound 58, (R)-5-(((5-oxo-1-(4-(thiazol-2-yl)phenyl)pyrrolidin-2-yl)methoxy)methyl)thiophene-2-carboxylic acid] | 5890 |  | 4640 |  |  | 215 | 38 | > 10000 |  |  | > 10000 |
| CCCCCC(O)c1ccc(N2C(=O)CC[C@@H]2CSc2nc(C(=O)O)cs2)cc1 (some centres unmarked) [compound 55] | 284 | 360 | 16000 |  | > 10000 | 355 | 120 | 3890 |  |  |  |
| CCCCCCC(O)c1ccc(N2C(=O)CC[C@@H]2CCSc2nc(C(=O)O)cs2)cc1 (stereo partly drawn) [compound 33, (R)-2-(2-(1-(4-(1-hydroxyheptyl)phenyl)-5-oxopyrrolidin-2-yl)ethylthio)thiazole-4-carboxylic acid] | 3 | 25 | 1560 | > 10000 | 6360 | 12 | 0.4 |  |  | > 10000 |  |
| CCCCCCC(O)c1ccc(N2C(=O)CC[C@@H]2CCSc2nc(C(=O)O)cs2)cc1 (single isomer, unassigned) [compound 37] | 11 | 51 | 5320 | 14600 | 9150 | 9 | 0.4 |  |  |  |  |
| CCCCCC(F)c1ccc(N2C(=O)CC[C@@H]2CCSc2nc(C(=O)O)cs2)cc1 (stereo partly drawn) [compound 19, (R)-2-(2-(1-(4-(1-fluorohexyl)phenyl)-5-oxopyrrolidin-2-yl)ethylthio)thiazole-4-carboxylic acid] | 8 | 90 | > 10000 |  | > 10000 | 9 | 0.23 |  |  | > 10000 |  |
| CCCCCC(O)c1ccc(N2C(=O)CC[C@@H]2CCSc2ncc(C(=O)O)s2)cc1 (stereo partly drawn) [compound 22, (R)-2-(2-(1-(4-(1-hydroxyhexyl)phenyl)-5-oxopyrrolidin-2-yl)ethylthio)thiazole-5-carboxylic acid] | 1800 | 11400 | > 10000 |  | > 10000 | 389 | 4 |  | > 10000 |  |  |
